Source: PubChem BioAssay (NCI)
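Step 1: Grow cells in 96-well plates. Step 2: Expose to compound for 48 hours at 5 concentrations. Step 3: Interpolate endpoints linearly; if unreached, use highest concentration. At the GI50, growth is halved. TGI marks complete inhibition of growth.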

Assays:
Assay in all cases: NCI anticancer screen, dose series, 48 h
ACHN renal = system: ACHN renal
TK-10 renal = system: TK-10 renal
M14 melanoma = system: M14 melanoma
IGROV1 ovarian = system: IGROV1 ovarian
OVCAR-3 ovarian = system: OVCAR-3 ovarian
K-562 leukemia = system: K-562 leukemia
HCT-116 colon = system: HCT-116 colon
DU-145 prostate = system: DU-145 prostate
MCF7 breast = system: MCF7 breast
RPMI-8226 leukemia = system: RPMI-8226 leukemia
PC-3 prostate = system: PC-3 prostate
OVCAR-4 ovarian = system: OVCAR-4 ovarian
786-0 renal = system: 786-0 renal
SK-OV-3 ovarian = system: SK-OV-3 ovarian
HOP-62 NSCLC = system: HOP-62 NSCLC
OVCAR-5 ovarian = system: OVCAR-5 ovarian
HCC-2998 colon = system: HCC-2998 colon
NCI-H23 lung = system: NCI-H23 lung
NCI-H226 lung = system: NCI-H226 lung
SW-620 colon = system: SW-620 colon
SK-MEL-5 melanoma = system: SK-MEL-5 melanoma
T-47D breast = system: T-47D breast
A498 renal = system: A498 renal
HCT-15 colon = system: HCT-15 colon
SF-295 CNS = system: SF-295 CNS
NCI-H460 lung = system: NCI-H460 lung
HL-60(TB) leukemia = system: HL-60(TB) leukemia
SR leukemia = system: SR leukemia
CCRF-CEM leukemia = system: CCRF-CEM leukemia
U251 CNS = system: U251 CNS
BT-549 breast = system: BT-549 breast
MDA-MB-231 breast = system: MDA-MB-231 breast
OVCAR-8 ovarian = system: OVCAR-8 ovarian
HOP-92 NSCLC = system: HOP-92 NSCLC
SF-539 CNS = system: SF-539 CNS
NCI/ADR-RES ovarian = system: NCI/ADR-RES ovarian
A549 NSCLC = system: A549 NSCLC
SN12C renal = system: SN12C renal
MDA-MB-435 = system: MDA-MB-435
SK-MEL-28 melanoma = system: SK-MEL-28 melanoma
HT29 colon = system: HT29 colon
SNB-19 CNS = system: SNB-19 CNS
SF-268 CNS = system: SF-268 CNS
HS 578T breast = system: HS 578T breast
LOX IMVI melanoma = system: LOX IMVI melanoma
UO-31 renal = system: UO-31 renal
EKVX NSCLC = system: EKVX NSCLC
UACC-62 melanoma = system: UACC-62 melanoma
RXF 393 renal = system: RXF 393 renal
KM12 colon = system: KM12 colon
SK-MEL-2 melanoma = system: SK-MEL-2 melanoma
COLO 205 colon = system: COLO 205 colon
NCI-H522 lung = system: NCI-H522 lung
MOLT-4 leukemia = system: MOLT-4 leukemia

Molecule `Cc1c(Cl)cccc1NC(=O)c1sc2nc3c(cc2c1N)CCCCCC3` has a GI50 (ACHN renal) of 465 nM, a TGI (ACHN renal) of over 50000 nM and a GI50 (TK-10 renal) of 10700 nM. For the same molecule, the TGI (TK-10 renal) was 47400 nM, the GI50 (M14 melanoma) was 154 nM and the TGI (M14 melanoma) was over 50000 nM. The GI50 (IGROV1 ovarian) was 426 nM, the TGI (IGROV1 ovarian) was over 50000 nM and the GI50 (OVCAR-3 ovarian) was 174 nM. The TGI (OVCAR-3 ovarian) was 1210 nM, the GI50 (K-562 leukemia) was 113 nM and the TGI (K-562 leukemia) was over 50000 nM. For the same molecule, the GI50 (HCT-116 colon) was 195 nM, the TGI (HCT-116 colon) was over 50000 nM and the GI50 (DU-145 prostate) was 258 nM. For the same molecule, the TGI (DU-145 prostate) was over 50000 nM, the GI50 (MCF7 breast) was 149 nM and the TGI (MCF7 breast) was over 50000 nM. The GI50 (RPMI-8226 leukemia) was 166 nM, the TGI (RPMI-8226 leukemia) was over 50000 nM and the GI50 (PC-3 prostate) was 174 nM. For the same molecule, the TGI (PC-3 prostate) was over 50000 nM, the GI50 (OVCAR-4 ovarian) was 936 nM and the TGI (OVCAR-4 ovarian) was 15200 nM. The GI50 (786-0 renal) was 223 nM, the TGI (786-0 renal) was 14700 nM and the GI50 (SK-OV-3 ovarian) was 279 nM. For the same molecule, the TGI (SK-OV-3 ovarian) was 26500 nM, the GI50 (HOP-62 NSCLC) was 326 nM and the TGI (HOP-62 NSCLC) was 19800 nM. For the same molecule, the GI50 (OVCAR-5 ovarian) was 791 nM, the TGI (OVCAR-5 ovarian) was over 50000 nM and the GI50 (HCC-2998 colon) was 1390 nM. It also gave a TGI (HCC-2998 colon) of over 50000 nM, a GI50 (NCI-H23 lung) of 273 nM and a TGI (NCI-H23 lung) of over 50000 nM. It also gave a GI50 (NCI-H226 lung) of 1140 nM, a TGI (NCI-H226 lung) of 25100 nM and a GI50 (SW-620 colon) of 175 nM. The TGI (SW-620 colon) was over 50000 nM, the GI50 (SK-MEL-5 melanoma) was 177 nM and the TGI (SK-MEL-5 melanoma) was 10500 nM. The GI50 (T-47D breast) was 223 nM, the TGI (T-47D breast) was over 50000 nM and the GI50 (A498 renal) was 202 nM. For the same molecule, the TGI (A498 renal) was 9160 nM, the GI50 (HCT-15 colon) was 156 nM and the TGI (HCT-15 colon) was over 50000 nM. For the same molecule, the GI50 (SF-295 CNS) was 168 nM, the TGI (SF-295 CNS) was 13000 nM and the GI50 (NCI-H460 lung) was 187 nM. For the same molecule, the TGI (NCI-H460 lung) was over 50000 nM, the GI50 (HL-60(TB) leukemia) was 158 nM and the TGI (HL-60(TB) leukemia) was 3400 nM. It also gave a GI50 (SR leukemia) of 101 nM, a TGI (SR leukemia) of over 50000 nM and a GI50 (CCRF-CEM leukemia) of 176 nM. For the same molecule, the TGI (CCRF-CEM leukemia) was over 50000 nM, the GI50 (U251 CNS) was 223 nM and the TGI (U251 CNS) was 14300 nM. The GI50 (BT-549 breast) was 439 nM, the TGI (BT-549 breast) was 23400 nM and the GI50 (MDA-MB-231 breast) was 356 nM. For the same molecule, the TGI (MDA-MB-231 breast) was over 50000 nM, the GI50 (OVCAR-8 ovarian) was 286 nM and the TGI (OVCAR-8 ovarian) was over 50000 nM. It also gave a GI50 (HOP-92 NSCLC) of 164 nM, a TGI (HOP-92 NSCLC) of 16100 nM and a GI50 (SF-539 CNS) of 168 nM. For the same molecule, the TGI (SF-539 CNS) was 7930 nM, the GI50 (NCI/ADR-RES ovarian) was 164 nM and the TGI (NCI/ADR-RES ovarian) was 15700 nM. It also gave a GI50 (A549 NSCLC) of 369 nM, a TGI (A549 NSCLC) of over 50000 nM and a GI50 (SN12C renal) of 408 nM. It also gave a TGI (SN12C renal) of over 50000 nM, a GI50 (MDA-MB-435) of 76.1 nM and a TGI (MDA-MB-435) of 251 nM. The GI50 (SK-MEL-28 melanoma) was 4590 nM, the TGI (SK-MEL-28 melanoma) was over 50000 nM and the GI50 (HT29 colon) was 188 nM. The TGI (HT29 colon) was 6560 nM, the GI50 (SNB-19 CNS) was 258 nM and the TGI (SNB-19 CNS) was 28500 nM. For the same molecule, the GI50 (SF-268 CNS) was 821 nM, the TGI (SF-268 CNS) was over 50000 nM and the GI50 (HS 578T breast) was 204 nM. The TGI (HS 578T breast) was 22900 nM, the GI50 (LOX IMVI melanoma) was 300 nM and the TGI (LOX IMVI melanoma) was over 50000 nM. For the same molecule, the GI50 (UO-31 renal) was 1510 nM, the TGI (UO-31 renal) was over 50000 nM and the GI50 (EKVX NSCLC) was 234 nM. It also gave a TGI (EKVX NSCLC) of over 50000 nM, a GI50 (UACC-62 melanoma) of 205 nM and a TGI (UACC-62 melanoma) of 46600 nM. It also gave a GI50 (RXF 393 renal) of 133 nM, a TGI (RXF 393 renal) of 3500 nM and a GI50 (KM12 colon) of 197 nM. It also gave a TGI (KM12 colon) of over 50000 nM, a GI50 (SK-MEL-2 melanoma) of 196 nM and a TGI (SK-MEL-2 melanoma) of 24200 nM. The GI50 (COLO 205 colon) was 285 nM, the TGI (COLO 205 colon) was over 50000 nM and the GI50 (NCI-H522 lung) was 116 nM. It also gave a TGI (NCI-H522 lung) of 1070 nM, a GI50 (MOLT-4 leukemia) of 265 nM and a TGI (MOLT-4 leukemia) of over 50000 nM.
